The record followed here is ChEMBL document CHEMBL1201862, “PubChem BioAssay data set” (2004).

Where “and” joins values, the source holds several entries; their conditions need not be identical. Equal entries are not always repeated. Calls of active or inactive are those of the source.

For orientation: IC50 means the concentration at which inhibition is half-maximal. As usually defined, the AC50 is the midpoint of the concentration-response curve, whichever way the signal moves. Usually EC50 stands for the concentration giving half of the maximal effect.

Assay [1] has as its target T1, Ubiquitin-conjugating enzyme E2 N (Homo sapiens, UniProt P61088).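 Note: Dose-response confirmation in a TR-FRET assay detecting UBC13-driven polyubiquitin chain formation, inhibition measured.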
T1 sequence (P61088 whole entry): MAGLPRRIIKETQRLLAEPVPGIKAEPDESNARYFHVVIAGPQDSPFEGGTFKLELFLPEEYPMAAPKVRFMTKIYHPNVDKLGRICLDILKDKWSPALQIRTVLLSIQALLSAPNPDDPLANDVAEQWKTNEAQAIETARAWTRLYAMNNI
Format: functional.

The next assay has as its system INS1. The experiment in a line: beta cell apoptosis inhibitors, cytokine rescue, dose response, luminescence, retest (AID 449756).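 Note: cell death triggered by IL-1 beta plus TNF-alpha plus IFN-gamma mixture; protective hits raise ATP signal compared with cytokine alone wells.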 Conditions: Rattus norvegicus. Format: functional, cell-based.
A short description of assay [2]: growth suppression of PTEN-null colon cells, dose response, cell-based, HCT116 PTEN knockout (AID 1047).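 Note: HCT116 colon tumor cells with PTEN knocked out; cells exposed to compound for 60 hours before readout; potency for loss of cell viability measured by luminescence.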 It is filed as functional.
Assay [3] in a line: Luminescence Cell-Based Dose Retest to Confirm Inhibitors of Cancer Stem Cells. [Related pubchem assays (depositor defined):AID2717, AID2721]. The note with it: Homo sapiens. Format: functional.
Assay [4] in a line: growth suppression of beta-catenin-knockout colon cells, dose response, cell-based, HCT116, human colon tumor (AID 1045).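 Note: HCT116 colon tumor cells with beta catenin knocked out; cells exposed to compound for 60 hours.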 It is filed as functional.
Another assay deals with Cytochrome P450 3A4 (Homo sapiens, UniProt P08684). Conditions: Potency.
The next assay concerns the target Large T antigen (Simian virus 40, UniProt P03070). It is filed as functional, Betapolyomavirus macacae.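 Note: Confirmatory-stage PubChem screen for compounds that inhibit SV40 T antigen.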
Assay [5] has as its target FAD-linked sulfhydryl oxidase ALR (Homo sapiens, UniProt P55789). The experiment in a line: inhibitors of human ALR sulfhydryl oxidase, dose response, biochemical, H2O2 detection, luminescence, cherry-pick (AID 493248).
A further assay can be described thus: cells. It is filed as functional.
In assay [6] the target is Glyceraldehyde-3-phosphate dehydrogenase (Homo sapiens, UniProt P04406).
Assay [7] in a line: MC4R antagonists, dose response, counter-screen for LGR2 antagonist project, cell-based, plate reader, cherry pick (AID 743444).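 Note: transfected HEK 293 cells stimulated with alpha-MSH peptide; potency of inhibitors of the alpha-MSH evoked signal.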 Format: functional. (In general: Counterscreens check selectivity or assay interference.)
The nature of assay [8]: HEK293 cell cytotoxicity, dose response, cytotoxicity control, plate reader, cherry-picked samples (AID 743446). It is filed as functional, cell-based.
A short description of assay [9]: LGR2 antagonists, dose response, cell-based, HEK293, CRE-luciferase reporter, cherry pick, set 2 (AID 743343).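 Note: transfected cells were stimulated with diluted bursicon conditioned medium after compound addition.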 Format: functional.
Assay [10] in a line: A549 cell cytotoxicity, dose response, cytotoxicity control, plate reader, cherry-pick, antagonist series (AID 743412). It is filed as functional, cell-based.
Assay [11] in a line: HepG2 cell cytotoxicity, dose response, cytotoxicity control, plate reader, cherry-pick, antagonist series (AID 743416). It is filed as functional, cell-based.
The nature of assay [12]: ZM109 Env clade C HIV-1 fusion inhibitors, dose response, HeLa effector, CEM target cells, luciferase, cherry-pick (AID 652058). Format: functional, cell-based.
Assay [13] can be described thus: P. falciparum Dd2 growth inhibitors, dose response, SYBR Green, cherry-picked samples (AID 1159567). It is filed as functional, cell-based.
Assay [14] can be described thus: microbe, parasite or virus in culture. Format: functional. The note with it: Mycobacterium tuberculosis.
The target of the next assay is T2, Streptokinase A (Streptococcus pyogenes serotype M1, UniProt P10520).
T2 sequence (P10520 whole entry): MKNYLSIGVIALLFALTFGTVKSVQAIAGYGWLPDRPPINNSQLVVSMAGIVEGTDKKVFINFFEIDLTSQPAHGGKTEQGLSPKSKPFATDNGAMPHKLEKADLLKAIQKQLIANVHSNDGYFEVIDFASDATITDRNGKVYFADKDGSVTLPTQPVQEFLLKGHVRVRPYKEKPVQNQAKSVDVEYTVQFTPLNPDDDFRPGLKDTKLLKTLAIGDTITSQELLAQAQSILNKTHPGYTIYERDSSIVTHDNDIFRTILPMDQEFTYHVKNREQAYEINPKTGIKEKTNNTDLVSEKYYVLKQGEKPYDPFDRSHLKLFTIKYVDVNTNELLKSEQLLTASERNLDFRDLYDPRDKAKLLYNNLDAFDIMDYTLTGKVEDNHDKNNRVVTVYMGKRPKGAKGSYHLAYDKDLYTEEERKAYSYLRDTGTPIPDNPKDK
The experiment in a line: S. pyogenes streptokinase expression inhibitors, potency, dose response, plasminogen activation absorbance, OD405 (AID 1914).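 Note: secreted streptokinase activity via plasminogen activation per viability signal from cell pellet.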 Format: functional, Streptococcus pyogenes M1 GAS.

A further assay relates to Streptococcus. The experiment in a line: Group A Streptococcus viability loss, dose response, counter-screen for streptokinase expression inhibitor project, luminescence, BacTiterGlo (AID 1915).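 Note: potency for reduction of bacterial viability or growth.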 Format: functional, organism-based.
Assay [15] deals with Streptococcus sp. 'group A'. The assay can be described thus: growth inhibition of control SK(-) GAS strain, dose response, counter-screen for streptokinase expression inhibitor project, luminescence, kanamycin, BacTiterGlo, confirmation (AID 1900). Format: functional, organism-based.
The target in assay [16] is T3, Heat shock factor protein 1 (Mus musculus, UniProt P38532).
T3 sequence (P38532 whole entry): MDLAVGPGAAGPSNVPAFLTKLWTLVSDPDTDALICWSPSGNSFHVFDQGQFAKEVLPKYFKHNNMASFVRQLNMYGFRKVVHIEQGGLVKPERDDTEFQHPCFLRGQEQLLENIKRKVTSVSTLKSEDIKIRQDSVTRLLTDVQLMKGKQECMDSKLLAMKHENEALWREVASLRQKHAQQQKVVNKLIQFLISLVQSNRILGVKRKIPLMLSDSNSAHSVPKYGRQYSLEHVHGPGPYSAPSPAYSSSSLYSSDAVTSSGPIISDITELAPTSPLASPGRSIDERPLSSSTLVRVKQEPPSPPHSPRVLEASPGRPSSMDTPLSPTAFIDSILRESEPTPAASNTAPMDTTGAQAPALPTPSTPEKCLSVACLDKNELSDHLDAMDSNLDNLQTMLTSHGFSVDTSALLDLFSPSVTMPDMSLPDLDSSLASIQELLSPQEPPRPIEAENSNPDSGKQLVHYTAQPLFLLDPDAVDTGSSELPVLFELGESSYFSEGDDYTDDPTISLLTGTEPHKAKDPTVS
The experiment in a line: HSF1 potentiators in luciferase reporter cells, confirmation, cell-based, NIH3T3, luminescence, dose retest (AID 435004).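 Note: stress induced by proteasome inhibitor MG132 added 30 min after compound; luciferase reporter driven by HSF1 response element in NIH3T3 cells; actives raise luminescence as potentiators of the MG132 stress response.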 Format: functional. A general note: Reporter assays use an easily measured gene product as a stand-in for the process of interest.

Sequence of FAD-linked sulfhydryl oxidase ALR (P55789 whole entry): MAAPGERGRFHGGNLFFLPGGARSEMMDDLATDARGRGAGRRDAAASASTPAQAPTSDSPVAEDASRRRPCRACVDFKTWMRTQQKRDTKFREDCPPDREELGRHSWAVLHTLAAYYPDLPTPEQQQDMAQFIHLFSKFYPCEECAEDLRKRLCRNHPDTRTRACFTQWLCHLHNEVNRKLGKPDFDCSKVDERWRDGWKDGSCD
Sequence of Glyceraldehyde-3-phosphate dehydrogenase (P04406 whole entry): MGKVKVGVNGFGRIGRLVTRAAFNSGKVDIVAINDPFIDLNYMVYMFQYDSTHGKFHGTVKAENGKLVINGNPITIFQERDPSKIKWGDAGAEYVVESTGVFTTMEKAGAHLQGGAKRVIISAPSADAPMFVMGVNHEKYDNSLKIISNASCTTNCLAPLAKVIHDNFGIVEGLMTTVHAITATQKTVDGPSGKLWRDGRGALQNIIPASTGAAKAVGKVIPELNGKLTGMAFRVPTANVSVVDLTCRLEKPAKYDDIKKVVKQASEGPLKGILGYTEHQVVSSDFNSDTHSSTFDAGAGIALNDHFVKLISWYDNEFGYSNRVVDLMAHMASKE
Sequence of Large T antigen (P03070 whole entry): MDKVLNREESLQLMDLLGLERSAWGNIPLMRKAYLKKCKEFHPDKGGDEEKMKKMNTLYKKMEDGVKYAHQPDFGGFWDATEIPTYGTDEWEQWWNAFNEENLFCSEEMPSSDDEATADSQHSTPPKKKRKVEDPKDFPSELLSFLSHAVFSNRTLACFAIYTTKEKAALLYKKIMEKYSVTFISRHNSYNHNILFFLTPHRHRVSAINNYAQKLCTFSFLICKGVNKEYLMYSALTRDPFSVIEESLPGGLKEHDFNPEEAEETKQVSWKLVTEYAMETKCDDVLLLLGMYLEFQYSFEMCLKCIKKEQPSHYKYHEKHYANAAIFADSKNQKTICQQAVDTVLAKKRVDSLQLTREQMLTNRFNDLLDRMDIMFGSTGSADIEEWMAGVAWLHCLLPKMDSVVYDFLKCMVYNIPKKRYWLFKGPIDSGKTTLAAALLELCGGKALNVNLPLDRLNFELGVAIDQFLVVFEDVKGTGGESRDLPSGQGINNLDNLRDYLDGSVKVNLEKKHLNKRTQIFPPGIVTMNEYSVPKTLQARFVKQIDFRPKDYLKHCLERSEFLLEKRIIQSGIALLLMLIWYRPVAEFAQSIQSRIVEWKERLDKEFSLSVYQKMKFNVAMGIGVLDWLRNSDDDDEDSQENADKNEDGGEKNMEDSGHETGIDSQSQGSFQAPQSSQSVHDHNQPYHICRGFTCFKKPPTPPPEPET
Sequence of Cytochrome P450 3A4 (P08684 whole entry): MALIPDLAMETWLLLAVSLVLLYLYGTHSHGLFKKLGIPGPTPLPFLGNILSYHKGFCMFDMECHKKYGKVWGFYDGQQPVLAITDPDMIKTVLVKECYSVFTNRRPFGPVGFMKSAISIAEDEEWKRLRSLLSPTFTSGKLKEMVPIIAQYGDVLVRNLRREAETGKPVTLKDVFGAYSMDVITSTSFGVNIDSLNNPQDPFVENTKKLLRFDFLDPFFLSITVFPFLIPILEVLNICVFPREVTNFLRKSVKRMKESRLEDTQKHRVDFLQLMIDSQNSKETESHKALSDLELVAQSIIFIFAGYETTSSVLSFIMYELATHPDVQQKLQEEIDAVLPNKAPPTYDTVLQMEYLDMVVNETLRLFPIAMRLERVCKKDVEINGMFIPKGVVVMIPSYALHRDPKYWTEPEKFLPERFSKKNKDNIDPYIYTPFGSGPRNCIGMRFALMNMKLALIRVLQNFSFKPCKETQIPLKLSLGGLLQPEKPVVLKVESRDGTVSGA

With `Cc1ccc2[nH]c(O)c(/N=N/C(=N)S)c2c1`, in [1], the IC50 is > 20 µM (inactive). For `CCCCCCSc1cc(-c2nc3cc(C)ccn3c2NC2CCCCC2)ccc1OC`, in assay [1], the IC50 is > 20 µM (inactive). `C=CCn1c(SCC(=O)c2[nH]c(C)c(C(=O)OCC)c2C)nc2scc(-c3ccc(OC)c(OC)c3)c2c1=O`: the concentration at half-maximal activity (AC50) in the assay on INS1 was 3.37 µM (active); in assay [3], 2.05 µM (active). Also, the EC50 in assay [2] is 6.55 µM (active); in [4], 7.26 µM (active). As to `O=C1OC(C2=CCCCC2)=NC12CC2`, on Cytochrome P450 3A4, the AC50 was 5.01 µM (inconclusive). On to `N#CC1=C(S)N(c2ccccc2)C(c2ccc(-c3ccc(Cl)c(Cl)c3)o2)NC1=O` (stereo unspecified), for which the IC50 at Large T antigen is 62.7 µM (active). As for `O=C(c1ccc2c(c1)OCO2)N1CCN=C1SCc1ccccc1`, the AC50 in assay [5] was > 100 µM (inactive). For the molecule `CCC1=C2CC[C@H]3C(=O)N(CC)C(=O)[C@H]3[C@H]2[C@@]2(C)/C(=N/CC(=O)OC)OC(=O)N2C1=O`, at Cytochrome P450 3A4, the AC50 was 15.8 µM (inconclusive). Take `C[C@@]12CCC(O)C[C@H]1CCC1C2CC[C@]2(C)C(=O)CCC12` (stereo partly specified): the AC50 on Cytochrome P450 3A4 was 15.8 µM (inconclusive).

With `Clc1ccc(-c2nc3cnccn3c2NC2CCCC2)cc1`, the AC50 in [5] was 4.85 µM (active). Turning to `Cc1ccc(-n2nnnc2Sc2ccc(S(=O)(=O)NCCN(C)C)cc2[N+](=O)[O-])cc1`, the EC50 in assay [2] is 2.26 µM (active); in assay [4], 2.05 µM (active). For the same molecule, the AC50 in assay [3] is 2.59 µM (active). Turning to `COc1ccc(Nc2c3c(nc4ccccc24)CCCC3)cc1OC`, the AC50 in [5] was 0.511 µM (active). For the molecule `COc1ccccc1N1CCN(S(=O)(=O)c2ccccc2)CC1`, in assay [5], the half-maximal activity concentration (AC50) was 7.31 µM (active). Consider `CC1Cc2ccccc2N1C(=O)COC(=O)c1ccc(Cl)nc1` (stereo unspecified), for which the IC50 in “cells” was 39.8 µM (active). Turning to `O=C(O)CCC(=O)Nc1ccc(O)c(C(=O)O)c1`, the 50% inhibitory concentration (IC50) in assay [6] is > 100 µM (not active).

Turning to `O=C(CSc1nc2ccccc2s1)NO`, in [6], the concentration for half-maximal inhibition (IC50) is recorded as > 100 µM (not active).

`CN(C)c1ccc(NC(=O)c2cccc(N3C(=O)CCC3=O)c2)cc1`: the half-maximal inhibitory concentration (IC50) at Large T antigen was 9.21 µM (active). On to `COC(=O)CNC(=O)C1(CC(C)C)C=CCN1C(=O)c1ccccc1` (stereo unspecified), for which the AC50 at Cytochrome P450 3A4 was 20 µM (inconclusive). `Cc1cc(Cl)ccc1OC(C)C(=O)Nc1ccc([N+](=O)[O-])cn1` (stereo unspecified): the IC50 in the assay “cells” is 38 µM (active). For the molecule `Cc1c(C)c2ccc(OCC(=O)Nc3nccs3)cc2oc1=O`, the results for the AC50 in assay [7], in assay [8] and in assay [9] were 4.38 µM (active), > 52 µM (inactive) and 4.84 µM (active), respectively.

Turning to `Cc1cc(C)cc(NC(=O)CCc2ccc(C)o2)c1`, the IC50 in “cells” was 36.7 µM (active). Take `O=C(Nc1nc2ccccc2s1)c1ccc2c(c1)OCO2`: the concentration at half-maximal activity (AC50) in [7] is 4.59 µM (active); in assay [8], 31.5 µM (active); in assay [10], > 52 µM (inactive); in assay [11], > 52 µM (inactive); in assay [9] it was 3.49 µM (active). On to `Nc1ccc(C(=O)Nc2cccc(N)c2)cc1`, for which the half-maximal activity concentration (AC50) in assay [5] was 1.96 µM (active). `CN1CCN(C2=C(Cl)C(=O)N(c3ccc(Cl)nc3)C2=O)CC1`: the IC50 in assay [6] was > 50 µM (inconclusive). Take `O=C(Nc1nnc(-c2cc(Cl)ccc2Cl)o1)C1=COCCO1`: in “cells”, the IC50 was 11.6 µM (active). As for `CC(C)NC(=O)N(C)C[C@@H]1Oc2ccc(NC(=O)C3CC3)cc2CC(=O)N([C@@H](C)CO)C[C@@H]1C`, the half-maximal activity concentration (AC50) in assay [12] is 64.5 µM (active).

For the molecule `COc1ccc(S(=O)(=O)Nc2ccc3c(c2)C(=O)N([C@@H](C)CO)C[C@H](C)[C@@H](CN(C)C(=O)Nc2cccc4ccccc24)OCCCC[C@H](C)O3)cc1`, the AC50 in [7] is 8.72 µM (active); in assay [8], > 52 µM (inactive); in [10] it was 22.8 µM (active); in [11] it was > 52 µM (inactive). Take `C/C(CC(=O)Nc1ccc(N(C)C)cc1)=N\NC(=O)c1cnccn1`: the half-maximal inhibitory concentration (IC50) at Large T antigen is 17.5 µM (active). As for `CC(C)(C)[S@+]([O-])N1Cc2cc(C(=O)NC3CCC3)nc(-c3cccc(Br)c3)c2[C@@H]1CCO`, the half-maximal activity concentration (AC50) in assay [13] is 7.47 µM (active). `COc1ccc(-c2ccccc2[C@H]2[C@@H](CO)N(C(=O)C3CCOCC3)[C@H]2C#N)cc1`: the AC50 in [13] is > 39 µM (inactive).

In the case of `CO[C@@H]1CN(C)C(=O)c2ccc(NC(=O)Nc3cccc(F)c3)cc2OC[C@H](C)NC[C@H]1C`, the half-maximal activity concentration (AC50) in assay [13] was 7.62 µM (active).

With `CC1=NN(c2ccccc2)C(=O)C1C(=O)c1ccccc1` (stereo unspecified), in “cells”, the IC50 was 42.1 µM (active). In addition, in [14], the CC50 was > 40 µM (active). Take `OC(CNCc1ccco1)Cn1c2ccc(Br)cc2c2cc(Br)ccc21` (stereo unspecified): the EC50 at Streptokinase A was > 150 µM (not active); in assay [2], 9.13 µM (active); in the assay on Streptococcus it was 13.7 µM (active); in assay [15], 4.22 µM (active); in assay [16], > 260 µM (inactive); in assay [4] it was 8.59 µM (active). The half-maximal activity concentration (AC50) in [3] is 3 µM (active). Take `COc1ccc(OC)c(S(=O)(=O)Nc2cccnc2)c1`: the IC50 in [6] was > 100 µM (not active). As to `COc1cc(OC)c2c(=O)c(-c3ccccc3)c(C)oc2c1OC` [2-METHYL-5,7,8-TRIMETHOXYISOFLAVONE], at Cytochrome P450 3A4, the AC50 was 20 µM (inconclusive). Regarding `COc1cccc2c1cc([N+](=O)[O-])c1c(C(=O)O)cc3c(c12)OCO3` [ARISTOLOCHIC ACID], on Cytochrome P450 3A4, the AC50 is 10 µM (inconclusive) and 63.1 nM (inconclusive).
